The results in this text go back to patent US9303049B2, “Nanodot and method for manufacturing the same” (National Sun Yat-sen University, priority 2013, dated 2016).

Data set [1] concerns SK-Hep-1 cell. As to the kind of experiment: Bioprobing and bioimaging, fluorescence microscopy of SK-Hep-1 cell. In kind it is cell-based. Particulars: for fluorescence signal in SK-Hep-1 cell: 48 hours incubation, nanodot solutions 20 mM, different excitation light sources. On the procedure:
SK-Hep-1 cell was incubated under 37° C. for 12 hours (overnight). Then avidin (purchased from Sigma) was added into the SK-Hep-1 cell to form a cell culture. […] Then the cell was fixed by paraformaldehyde.
SK-Hep-1 cell was incubated under 37° C. for 12 hours (overnight). Then avidin-FITC (purchased from Sigma) was added into the SK-Hep-1 cell to form a cell culture.
SK-Hep-1 cell was incubated under 37° C. for 12 hours (overnight). Then the 3-aminopropyltriethoxysilane nanodot solution (20 mM) prepared in example 4 and the avidin modified 3-aminopropyltriethoxysilane nanodot solution (20 mM) were added into this SK-Hep-1 cell to form two cell cultures respectively. […] Then the cell was fixed by paraformaldehyde. […] Referring to FIG. 10, FIGS. 10(a)-(d) show the SK-Hep-1 cell added with 3-aminopropyltriethoxysilane nanodot solution. FIGS. 10(m)-(p) show the SK-Hep-1 cell added with avidin modified 3-aminopropyltriethoxysilane nanodot solution. […] Therefore, the fluorescence signal of FIGS. 10(b)-(d) and (n)-(p) resulted from the nanodot. In addition, FIGS. 10(i)-(I) show the SK-Hep-1 cell added with avidin-FITC. […] FIGS. 13(a)-(c) show the images of the SK-Hep-1 cell added with 3-aminopropyltriethoxysilane nanodot solution and continuously irradiated with excitation light, wherein FIGS. 13(a)-(c) are the images observed at 0 minutes, 2 minutes and 5 minutes respectively. FIGS. 13(d)-(f) show the images of the SK-Hep-1 cell added with avidin-FITC and continuously irradiated with excitation light, wherein FIGS. 13(d)-(f) are the images observed at 0 minutes, 2 minutes and 5 minutes respectively. FIGS. 13(g)-(i) show the images of the SK-Hep-1 cell added with avidin modified 3-aminopropyltriethoxysilane nanodot solution and continuously irradiated with excitation light, wherein FIGS. 13(g)-(i) are the images observed at 0 minutes, 2 minutes and 5 minutes respectively. […] Therefore, the nanodot has better photo stability.

The subject of data set [2] is SK-Hep-1 cell. Description: Stability measurement of fluorescence under continuous excitation light in SK-Hep-1 cell. Particulars: continuously irradiated with excitation light, observed at 2 minutes and 5 minutes versus 0 minutes. In kind it is cell-based. The method, then:
SK-Hep-1 cell was incubated under 37° C. for 12 hours (overnight). Then the 3-aminopropyltriethoxysilane nanodot solution (20 mM) prepared in example 4 and the avidin modified 3-aminopropyltriethoxysilane nanodot solution (20 mM) were added into this SK-Hep-1 cell to form two cell cultures respectively. […] Then the cell was fixed by paraformaldehyde. […] Referring to FIG. 10, FIGS. 10(a)-(d) show the SK-Hep-1 cell added with 3-aminopropyltriethoxysilane nanodot solution. FIGS. 10(m)-(p) show the SK-Hep-1 cell added with avidin modified 3-aminopropyltriethoxysilane nanodot solution. […] Therefore, the fluorescence signal of FIGS. 10(b)-(d) and (n)-(p) resulted from the nanodot. In addition, FIGS. 10(i)-(I) show the SK-Hep-1 cell added with avidin-FITC. […] FIGS. 13(a)-(c) show the images of the SK-Hep-1 cell added with 3-aminopropyltriethoxysilane nanodot solution and continuously irradiated with excitation light, wherein FIGS. 13(a)-(c) are the images observed at 0 minutes, 2 minutes and 5 minutes respectively. FIGS. 13(d)-(f) show the images of the SK-Hep-1 cell added with avidin-FITC and continuously irradiated with excitation light, wherein FIGS. 13(d)-(f) are the images observed at 0 minutes, 2 minutes and 5 minutes respectively. […]

avidin: the “fluorescence signal in SK-Hep-1 cell” value with SK-Hep-1 cell [1] is on record as “no fluorescence signal”.

As for “avidin modified 3-aminopropyltriethoxysilane nanodot: 3-aminopropyltriethoxysilane nanodot of example 4 modified with avidin”, the “fluorescence after continuous irradiation (photo stability)” value in the data set with SK-Hep-1 cell [2] was “only became slightly weak”. The “fluorescence signal in SK-Hep-1 cell” value in the data set on SK-Hep-1 cell [1] was “significant multiphoton fluorescence with red, green and blue lights emitted”. The “effect of avidin modification on entry into cells” value in the data set with SK-Hep-1 cell [1] (FIGS. 10(n)-(p) compared with FIGS. 10(b)-(d), SK-Hep-1 cell, 48 hours) was “enhance the efficiency of the nanodot to enter into cells and aggregate in cells”.

As for “avidin-FITC: avidin-FITC purchased from Sigma; FITC is a conventional organic fluorescent dye widely applied in bioimaging”, in the data set with SK-Hep-1 cell [2], the “fluorescence after continuous irradiation (photo stability)” value is “nearly no fluorescence”. Further, in the data set on SK-Hep-1 cell [1], the “fluorescence signal in SK-Hep-1 cell” value is “could not emit blue and red fluorescence”.
